The first experiment has as its system Ramos B-Cell Line Stimulated with IL-4 (JAK-1 and JAK-3 / Stat-6, CD23). The experiment in a line: Assay for Ramos B-Cell Line Stimulated with IL-4 (CD23 upregulation, FACS). The format is cell-based. Particulars: Homo sapiens, Ramos, human Ramos B cells, compound 1 hour, IL-4 50 units/mL for 20-24 hours, anti-CD23-PE FACS; read-out: Example 2 (IC50). An excerpt:
One means of assaying for such inhibition is detection of the effect of the 2,4-pyrimidinediamine compounds on the upregulation of downstream gene products. In the Ramos/IL4 assay, B-cells are stimulated with the cytokine Interleukin-4 (IL-4) leading to the activation of the JAK/Stat pathway through phosphorylation of the JAK family kinases, JAK1 and JAK3, which in turn phosphorylate and activate the transcription factor Stat-6. […] To study the effect of inhibitors (e.g., the 2,4-substituted pyrimindinediamine compounds described herein) on the JAK1 and JAK3 kinases, human Ramos B cells are stimulated with human IL-4. 20 to 24 hours post stimulation, cells are stained for upregulation of CD23 and analyzed using flow cytometry (FACS).
B-cells stimulated with cytokine Interleukin-4 (IL-4) activate the JAK/Stat pathway through phosphorylation of the JAK family kinases, JAK-1 and JAK-3, which in turn phosphorylate and activate the transcription factor Stat-6. […] To study the effect of inhibitors on the JAK family kinases, human Ramos B cells were stimulated with human IL-4.
Cells were maintained at a density of 3.5×10^5. The day before the experiment, Ramos B-cells were diluted to 3.5×10^5 cells/mL to ensure that they were in a logarithmic growth phase.
Cells were spun down and suspended in RPMI with 5% serum. 5×10^4 cells were used per point in a 96-well tissue culture plate. Cells were pre-incubated with compound or DMSO (Sigma-Aldrich, St. Louis, Mo., Cat No. D2650) vehicle control for 1 hour in a 37° C. incubator. Cells were then stimulated with IL-4 (Peprotech Inc., Rocky Hill, N.J., Cat No. 200-04) for a final concentration of 50 units/mL for 20-24 hours. […] Detection was performed using a BD LSR I System Flow Cytometer, purchased from Becton Dickinson Biosciences of San Jose, Calif.
Take `N#CCc1ccc(Nc2ncc(F)c(Nc3ccc(OCC(N)=O)cc3)n2)cc1` [Compound I-76, N4-(4-Aminocarbonylmethoxyphenyl)-N2-(4-cyanomethylphenyl)-5-fluoro-2,4-pyrimidinediamine]: the IC50 came out at 278 nM. The same measure, in the same setting: the figure for `N#CCc1ccc(Nc2ncc(F)c(Nc3ccc(Cc4ccncc4)cc3)n2)cc1` [Compound I-131, N2-(4-Cyanomethylphenyl)-5-fluoro-N4-[4-(4-pyridinylmethyl)phenyl]-2,4-pyrimidinediamine] is 382 nM. Take `N#CCc1ccc(Nc2nc(Nc3cccc(C(N)=O)c3)ncc2F)cc1` [Compound I-68, N2-(3-Aminocarbonylphenyl)-N4-(4-cyanomethylphenyl)-5-fluoro-2,4-pyrimidinediamine]: the IC50 is 1620 nM. Same read-out and setting: the figure for `CN1CCN(c2ccc(Nc3ncc(F)c(Nc4ccc(OCC(N)=O)cc4)n3)cc2C(N)=O)CC1` [Compound I-38, N2-[3-Aminocarbonyl-4-(4-methylpiperazin-1-yl)phenyl]-N4-(4-aminocarbonylmethoxyphenyl)-5-fluoro-2,4-pyrimidinediamine] is 533 nM. Same read-out and setting: the value for `Cc1noc(Cc2ccc(Nc3nc(Nc4ccc(CC#N)cc4)ncc3F)cc2)n1` [Compound I-113, N2-(4-Cyanomethylphenyl)-5-fluoro-N4-[4-((3-methyl-1,2,4-oxadiazol-5-yl)methyl)phenyl]-2,4-pyrimidinediamine] was 149 nM; that for `NC(=O)COc1cccc(Nc2nc(Nc3ccc(C(N)=O)cc3)ncc2F)c1` [Compound I-32, N4-(3-Aminocarbonylmethoxyphenyl)-N2-(4-aminocarbonylphenyl)-5-fluoro-2,4-pyrimidinediamine] was 184 nM.

As for `CCc1cc(Nc2ncc(F)c(Nc3ccc(OCC#N)c(Cl)c3)n2)cc(C#N)c1Cl` [Compound I-108, N2-(4-Chloro-3-cyano-5-ethylphenyl)-N4-(3-chloro-4-cyanomethoxyphenyl)-5-fluoro-2,4-pyrimidinediamine], the IC50 was 1800 nM. Still for that read-out and setting: the figure for `Cc1noc(COc2ccc(Nc3nc(Nc4ccc(CC#N)cc4)ncc3F)cc2)n1` [Compound I-110, N2-(4-Cyanomethylphenyl)-5-fluoro-N4-[4-((3-methyl-1,2,4-oxadiazol-5-yl)methoxy)phenyl]-2,4-pyrimidinediamine] is 29.8 nM; for `NC(=O)c1ccc(Nc2ncc(F)c(Nc3cccc(-c4ncco4)c3)n2)cc1Cl` [Compound I-14, N2-(4-Aminocarbonyl-3-chlorophenyl)-5-fluoro-N4-[3-(oxazol-2-yl)phenyl]-2,4-pyrimidinediamine] it is 178 nM; for `C#CCOc1ccc(Nc2nc(Nc3ccc(C(N)=S)cc3)ncc2F)cc1` [Compound I-7, N2-(4-Aminocarbonothioylphenyl)-5-fluoro-N4-[4-(2-propynyloxy)phenyl]-2,4-pyrimidinediamine] it is 223 nM. Take `CCc1cc(Nc2ncc(F)c(Nc3ccc(CC#N)cc3)n2)cc(C#N)c1Cl` [Compound I-106, N2-(4-Chloro-3-cyano-5-ethylphenyl)-N4-(4-cyanomethylphenyl)-5-fluoro-2,4-pyrimidinediamine]: the IC50 amounted to 7020 nM. Same read-out and setting: the value for `CCc1cc(Nc2ncc(F)c(Nc3ccc4c(c3)NC(=O)CO4)n2)cc(C#N)c1Cl` [II-27, N2-(4-Chloro-3-cyano-5-ethylphenyl)-5-fluoro-N4-(3-oxo-2H,4H-benzo[1,4]oxazin-6-yl)-2,4-pyrimidinediamine] was 4820 nM; that for `N#CCOc1ccc(Nc2nc(Nc3cccc(C(N)=O)c3)ncc2F)cc1F` [Compound I-102, N2-(3-Aminocarbonylphenyl)-N4-(4-cyanomethoxy-3-fluorophenyl)-5-fluoro-2,4-pyrimidinediamine] was 259 nM; that for `Cc1nc(COc2ccc(Nc3nc(Nc4cccc(C(N)=O)c4)ncc3F)cc2)no1` [Compound I-57, N2-(3-Aminocarbonylphenyl)-5-fluoro-N4-[4-((5-methyl-1,2,4-oxadiazol-3-yl)methoxy)phenyl]-2,4-pyrimidinediamine] was 292 nM. In the case of `Cc1cc(Nc2nc(Nc3cccc(C(N)=O)c3)ncc2F)cc(C)c1OC(C)C#N` (centres unmarked) [Compound I-96, N2-(3-Aminocarbonylphenyl)-N4-[4-(1-cyanoethoxy)-3,5-dimethylphenyl]-5-fluoro-2,4-pyrimidinediamine], the IC50 was 255 nM. Still for that read-out and setting: the value for `CNC(=O)c1cc(Nc2ncc(F)c(Nc3cccc(OCC#N)c3)n2)ccc1N1CCN(C)CC1` [Compound I-55, N4-(3-Cyanomethoxyphenyl)-5-fluoro-N2-[3-methylaminocarbonyl-4-(4-methylpiperazin-1-yl)phenyl]-2,4-pyrimidinediamine] was 38.4 nM; that for `N#CCOc1ccc(Nc2nc(Nc3ccc(C(N)=O)cc3)ncc2F)cc1F` [Compound I-101, N2-(4-Aminocarbonylphenyl)-N4-(4-cyanomethoxy-3-fluorophenyl)-5-fluoro-2,4-pyrimidinediamine] was 33.7 nM; that for `Cc1cc(Nc2nc(Nc3ccc(CC#N)cc3)ncc2F)ccc1OC(C)C#N` (centres unmarked) [Compound I-94, N4-[4-(1-Cyanoethoxy)-3-methylphenyl]-N2-(4-cyanomethylphenyl)-5-fluoro-2,4-pyrimidinediamine] was 381 nM. Same read-out and setting: the value for `Cc1cc(Nc2nc(Nc3ccc(CC#N)cc3)ncc2F)ccc1OCC#N` [Compound I-86, N4-(4-Cyanomethoxy-3-methylphenyl)-N2-(4-cyanomethylphenyl)-5-fluoro-2,4-pyrimidinediamine] was 142 nM; that for `CN1CCN(c2ccc(Nc3ncc(F)c(Nc4ccc(OCC#N)cc4)n3)cc2C(N)=O)CC1` [Compound I-42, N2-[3-Aminocarbonyl-4-(4-methylpiperazin-1-yl)phenyl]-N4-(4-cyanomethoxyphenyl)-5-fluoro-2,4-pyrimidinediamine] was 14 nM; that for `N#CCc1ccc(Nc2nc(Nc3ccc(C#N)cc3)ncc2F)cc1` [Compound I-69, N4-(4-Cyanomethylphenyl)-N2-(4-cyanophenyl)-5-fluoro-2,4-pyrimidinediamine] was 7190 nM. Still for that read-out and setting: the value for `CNC(=O)c1cc(Nc2ncc(F)c(Nc3ccc(OCC(N)=O)cc3)n2)ccc1N1CCN(C)CC1` [Compound I-39, N4-(4-Aminocarbonylmethoxyphenyl)-5-fluoro-N2-[3-methylaminocarbonyl-4-(4-methylpiperazin-1-yl)phenyl]-2,4-pyrimidinediamine] was 431 nM.

The same experiment, now with this note: human Ramos B cells, compound 1 hour, IL-4 50 units/mL for 20-24 hours, anti-CD23-PE FACS; read-out: Example 2 (IC50).
On to `CCN(CC)CCNC(=O)c1ccc(Nc2ncc(F)c(Nc3cccc(OCc4nc(C)no4)c3)n2)cc1` [Compound I-125, N2-[4-(2-(N,N-Diethylamino)ethylaminocarbonyl)phenyl]-5-fluoro-N4-[3-(3-methyl-1,2,4-oxadiazol-5-yl)methyleneoxyphenyl]-2,4-pyrimidinediamine], for which the 50% inhibitory concentration (IC50) is 103 nM. With `CN1CCN(C(=O)c2ccc(Nc3ncc(F)c(Nc4ccc(CC#N)cc4)n3)cc2)CC1` [Compound I-72, N4-(4-Cyanomethylphenyl)-5-fluoro-N2-[4-((4-methylpiperazin-1-yl)carbonyl)phenyl]-2,4-pyrimidinediamine], the IC50 was 599 nM. Same read-out and setting: the figure for `Cc1cnc(Nc2cccc(C(N)=O)c2)nc1Nc1ccc2c(n1)N(C)C(=O)C(C)(C)O2` [II-43, N2-(3-Aminocarbonylphenyl)-5-methyl-N4-(2,2,4-trimethyl-3-oxo-5-pyrido[1,4]oxazin-6-yl)-2,4-pyrimidinediamine] is 229 nM; for `CNC(=O)COc1cccc(Nc2ncc(Br)c(Nc3ccc(OC)c(Cl)c3)n2)c1` [Compound I-1, 5-Bromo-N4-(3-chloro-4-methoxyphenyl)-N2-[3-(N-methylaminocarbonylmethyleneoxy)phenyl]-2,4-pyrimidinediamine] it is 123 nM; for `CNC(=O)COc1cc(Nc2ncc(C)c(Nc3ccc4c(n3)NC(=O)C(C)(C)O4)n2)cc(OC)c1OC` [II-35, N2-[3,4-Dimethoxy-5-(N-methylaminocarbonylmethoxy)phenyl]-N4-(2,2-dimethyl-3-oxo-4H-5-pyrido[1,4]oxazin-6-yl)-5-methyl-2,4-pyrimidinediamine] it is 87.3 nM. The same measure, in the same setting: the value for `Cc1cnc(Nc2cccc(C(N)=O)c2)nc1Nc1ccc2c(c1)NC(=O)CS2` [II-44, N2-(3-Aminocarbonylphenyl)-N4-(3,4-dihydro-2H-3-oxo-4H-benz[1,4]thiazin-6-yl)-5-methyl-2,4-pyrimidinediamine] was 189 nM; that for `CNC(=O)COc1cc(Nc2ncc(F)c(Nc3ccc4c(c3)NC(=O)CO4)n2)cc(OC)c1OC` [II-22, N2-[4,5-Dimethoxy-3-(N-methylaminocarbonylmethyleneoxy)phenyl]-5-fluoro-N4-(3-oxo-2H,4H-benzo[1,4]oxazin-6-yl)-2,4-pyrimidinediamine] was 110 nM.
